Measurements from patent publication US20220324835A1 (Nurix Therapeutics, Inc., priority 2018, published 2022).

Legend:
Cbl-b [1] = biological target: T1, Cbl-b (Homo sapiens, UniProt Q13191); experiment: Cbl-b inhibition assay (Cbl-b activity assay, FRET, Biological Example 1; 100 mM NaCl, 60 nM Src kinase); format: biochemical; conditions: upper bound stated in text lists; read-out: IC50 values in the Cbl-b inhibition assay of Biological Example 1
Outline: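 Here, the E2 UbcH5B, irreversibly linked to Bodipy-fluorescein ubiquitin, binds Cbl-b once Src kinase phosphorylates it; Cbl-b carries an N-terminal biotinylated Avi-tag captured by streptavidin-terbium. An absent FRET signal indicates inhibition.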

Cbl-b [2] = biological target: T1, Cbl-b; experiment: Cbl-b activity assay (Cbl-b inhibition assay), TR-FRET of Cbl-b interaction with UbcH5B-Ub; format: biochemical
Outline: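 Compound-treated Cbl-b was incubated 1.5 h with Src kinase (60 nM final; 30 nM for asterisked values, which also used 50 mM instead of 100 mM NaCl), 1 mM ATP and 5 mM MgCl2. Binding to fluorescent Ub-loaded UbcH5B (C85K mutant) was then read by TR-FRET after 1 h more.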

Cbl-b (residues 36-427) = Cbl-b (residues 36-427) (Homo sapiens, UniProt Q13191); experiment: Cbl-b binding assay (SPR, Biacore T200); conditions: 20° C., 1:1 binding model
Experimental: SPR data was collected on a Biacore T200 (GE Healthcare) using a NeutrAvidin (Invitrogen) capture surface that was generated on a polycarboxylate hydrogel sensor chip of medium charge density (XanTec Bioanalytics GmbH) at 20° C. The surface was prepared using 20 mM HEPES, pH 7.5, 100 mM NaCl, 0.5 mM TCEP, 0.01% Triton X-100 as the immobilization buffer. Neutravidin was coupled to the sensor chip through EDC/NHS amine coupling. All steps were performed using a flow rate of 10 μl/min. First, the chip was preconditioned with a 3-min injection of 1 M NaCl, 0.1 M Borate followed by a 10-min equilibration in immobilization buffer. The surface was activated by a 5-min injection of 100 mM EDC/50 mM NHS. Next, 250 μg/mL NeutrAvidin buffered in 10 mM sodium acetate buffer, pH 5.0 was injected over the surface for 2 min. The surface was deactivated with 1 M Tris, pH 8.5 for 7 min then re-equilibrated in immobilization buffer for 7 min. […] Flow cell 1 served as a reference surface and was prepared without protein. All binding measurements were made in 20 mM HEPES, pH 7.5, 100 mM NaCl, 0.5 mM TCEP, 0.01% Triton X-100, 2% DMSO (referred as assay buffer) at 20° C. Compounds, prepared in assay buffer, were diluted from atop concentration of either 100 μM or 50 μM using either a 2- or 3-fold dilution scheme containing 8 or 10 points. Samples were injected for 50 s at 50 μl/min. Dissociation time varied from 90-180 s, depending on anticipated potency. The surface was regenerated by injection of 0.3 M NaCl, prepared in assay buffer for 20 s at 10 μl/min. Positive and negative control samples were run between each compound to monitor surface integrity.
Column marked with an asterisk (*) were tested as described above with assay buffer containing 50 mM NaCl instead of 100 mM NaCl and 30 nM Src kinase instead of 60 nM Src kinase. The resulting data for the Cbl-b binding assay was solvent corrected and double referenced prior to analysis. All data were globally fit to a steady-state affinity and kinetic binding model where applicable). Fit parameters were derived from a 1:1 binding model using the Biacore T200 Evaluation Software V2.0 (GE Healthcare) (Table 2).

[3] = assay buffer with 100 mM NaCl, 60 nM Src kinase, read-out: Cbl-b activity IC50
[4] = * assay buffer containing 50 mM NaCl instead of 100 mM NaCl and 30 nM Src kinase instead of 60 nM, read-out: Cbl-b activity IC50 (μM)*

Chain of Cbl-b (residues 36-427) (Q13191 36-427): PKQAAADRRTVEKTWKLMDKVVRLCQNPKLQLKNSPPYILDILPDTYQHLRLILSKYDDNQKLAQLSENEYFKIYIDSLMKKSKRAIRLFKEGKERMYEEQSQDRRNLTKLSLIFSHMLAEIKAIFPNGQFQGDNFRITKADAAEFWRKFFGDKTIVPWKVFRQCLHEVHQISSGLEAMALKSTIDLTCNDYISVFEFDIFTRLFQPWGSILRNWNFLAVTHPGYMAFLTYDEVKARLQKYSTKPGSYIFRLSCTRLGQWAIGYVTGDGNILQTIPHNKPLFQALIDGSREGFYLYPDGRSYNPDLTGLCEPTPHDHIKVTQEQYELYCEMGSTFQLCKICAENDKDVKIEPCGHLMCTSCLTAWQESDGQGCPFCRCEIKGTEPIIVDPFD
T1 sequence (Q13191 36-427): as above

CCOc1cccc(C(=O)Nc2cccc([C@H](C)Sc3nncn3C)c2)n1 [Compound 90, 6-Ethoxy-N-[3-[(1S)-1-[(4-methyl-1,2,4-triazol-3-yl)sulfanyl]ethyl]phenyl]pyridine-2-carboxamide]
IC50 (Cbl-b [1]): ≤ 10 µM
IC50 (Cbl-b [2]; [3]): 1 to 3 µM
Kd (Cbl-b (residues 36-427)): 3 to 10 µM

CC(Sc1nncn1C)c1ccc(F)c(NC(=O)c2cccc(C(F)(F)F)n2)c1 (centres unmarked) [Compound 95, N-(2-fluoro-5-(1-((4-methyl-4H-1,2,4-triazol-3-yl)thio)ethyl)phenyl)-6-(trifluoromethyl)picolinamide]
IC50 (Cbl-b [1]): ≤ 10 µM
IC50 (Cbl-b [2]; [3]): 1 to 3 µM
Kd (Cbl-b (residues 36-427)): 1 to 3 µM

C[C@@H](Sc1nncn1C)c1ccc(F)c(NC(=O)c2cccc(C(F)(F)F)n2)c1 [Compound 95b, (R)-N-(2-fluoro-5-(1-((4-methyl-4H-1,2,4-triazol-3-yl)thio)ethyl)phenyl)-6-(trifluoromethyl)picolinamide]
IC50 (Cbl-b [1]): ≤ 10 µM
IC50 (Cbl-b [2]; [3]): 3 to 10 µM
Kd (Cbl-b (residues 36-427)): > 10 µM

C[C@H](Sc1nncn1C)c1ccc(F)c(NC(=O)c2ccc3ccccc3n2)c1 [Compound 96a, (S)-N-(2-fluoro-5-(1-((4-methyl-4H-1,2,4-triazol-3-yl)thio)ethyl)phenyl)quinoline-2-carboxamide]
IC50 (Cbl-b [1]): ≤ 10 µM
IC50 (Cbl-b [2]; [3]): 1 to 3 µM
Kd (Cbl-b (residues 36-427)): 1 to 3 µM

COc1ccc(C(C)Sc2nncn2C)cc1NC(=O)c1ccc2ccccc2n1 (centres unmarked) [Compound 97, N-(2-methoxy-5-(1-((4-methyl-4H-1,2,4-triazol-3-yl)thio)ethyl)phenyl)quinoline-2-carboxamide]
IC50 (Cbl-b [1]): ≤ 10 µM
IC50 (Cbl-b [2]; [4]): 1 to 3 µM
IC50 (Cbl-b [2]; [3]): 1 to 3 µM
Kd (Cbl-b (residues 36-427)): 3 to 10 µM

C[C@H](Sc1nncn1C1CC1)c1cccc(NC(=O)c2cc3ccccc3cn2)c1 [Compound 99, (S)-N-(3-(1-((4-cyclopropyl-4H-1,2,4-triazol-3-yl)thio)ethyl)phenyl)isoquinoline-3-carboxamide]
IC50 (Cbl-b [1]): ≤ 1 µM
IC50 (Cbl-b [2]; [4]): 3 to 10 µM
IC50 (Cbl-b [2]; [3]): 0.301 to 1 µM
Kd (Cbl-b (residues 36-427)): 3 to 10 µM

C[C@H](Sc1nncn1C)c1ccnc(NC(=O)c2cccc(C(F)(F)F)n2)c1 [Compound 102b, (S)-N-(4-(1-((4-methyl-4H-1,2,4-triazol-3-yl)thio)ethyl)pyridin-2-yl)-6-(trifluoromethyl)picolinamide]
IC50 (Cbl-b [1]): ≤ 10 µM
IC50 (Cbl-b [2]; [4]): 1 to 3 µM
IC50 (Cbl-b [2]; [3]): 1 to 3 µM
Kd (Cbl-b (residues 36-427)): 1 to 3 µM

C[C@H](Sc1nncn1C)c1ccnc(NC(=O)c2ccc3cccc(F)c3n2)c1 [Compound 107, (S)-8-fluoro-N-(4-(1-((4-methyl-4H-1,2,4-triazol-3-yl)thio)ethyl)pyridin-2-yl)quinoline-2-carboxamide]
IC50 (Cbl-b [1]): ≤ 10 µM
IC50 (Cbl-b [2]; [3]): 1 to 3 µM
Kd (Cbl-b (residues 36-427)): 3 to 10 µM

C[C@H](Sc1nncn1C)c1ccnc(NC(=O)c2ccc3c(n2)CCCC3)c1 [Compound 108, (S)-N-(4-(1-((4-methyl-4H-1,2,4-triazol-3-yl)thio)ethyl)pyridin-2-yl)-5,6,7,8-tetrahydroquinoline-2-carboxamide]
IC50 (Cbl-b [1]): ≤ 10 µM
IC50 (Cbl-b [2]; [3]): 1 to 3 µM
Kd (Cbl-b (residues 36-427)): 3 to 10 µM

C[C@H](Sc1nncn1C)c1ccnc(NC(=O)c2cc3c(cn2)CCCC3)c1 [Compound 109, (S)-N-(4-(1-((4-methyl-4H-1,2,4-triazol-3-yl)thio)ethyl)pyridin-2-yl)-5,6,7,8-tetrahydroisoquinoline-3-carboxamide]
IC50 (Cbl-b [1]): ≤ 10 µM
IC50 (Cbl-b [2]; [3]): 3 to 10 µM
Kd (Cbl-b (residues 36-427)): 3 to 10 µM

C[C@H](Sc1nncn1C)c1ccnc(NC(=O)c2cccc(C(C)(F)F)n2)c1 [Compound 110, (S)-6-(1,1-difluoroethyl)-V-(4-(1-((4-methyl-4H-1,2,4-triazol-3-yl)thio)ethyl)pyridin-2-yl)picolinamide]
IC50 (Cbl-b [1]): ≤ 1 µM
IC50 (Cbl-b [2]; [3]): 0.301 to 1 µM
Kd (Cbl-b (residues 36-427)): 3 to 10 µM

C[C@H](Sc1nncn1C)c1ccnc(NC(=O)c2cc(C(F)(F)F)c3ccccc3n2)c1 [Compound 111, (S)-N-(4-(1-((4-methyl-4H-1,2,4-triazol-3-yl)thio)ethyl)pyridin-2-yl)-4-(trifluoromethyl)quinoline-2-carboxamide]
IC50 (Cbl-b [1]): ≤ 10 µM
IC50 (Cbl-b [2]; [3]): 3 to 10 µM
Kd (Cbl-b (residues 36-427)): 3 to 10 µM

C[C@H](Sc1nncn1C)c1ccnc(NC(=O)c2ccc3ccccc3n2)c1 [Compound 112, (S)-N-(4-(1-((4-methyl-4H-1,2,4-triazol-3-yl)thio)ethyl)pyridin-2-yl)quinoline-2-carboxamide]
IC50 (Cbl-b [1]): ≤ 1 µM
IC50 (Cbl-b [2]; [4]): 1 to 3 µM
IC50 (Cbl-b [2]; [3]): 0.301 to 1 µM
Kd (Cbl-b (residues 36-427)): 3 to 10 µM

C[C@H](Sc1nncn1C)c1ccnc(NC(=O)c2cc(C(F)(F)F)c(Cl)cn2)c1 [Compound 114, (S)-5-chloro-N-(4-(1-((4-methyl-4H-1,2,4-triazol-3-yl)thio)ethyl)pyridin-2-yl)-4-(trifluoromethyl)picolinamide]
IC50 (Cbl-b [1]): ≤ 10 µM
IC50 (Cbl-b [2]; [3]): 3 to 10 µM
Kd (Cbl-b (residues 36-427)): > 10 µM

C[C@H](Sc1nncn1C)c1ccnc(NC(=O)c2cccc(S(F)(F)(F)(F)F)c2)c1 [Compound 116, N-[4-[(1S)-1-[(4-methyl-1,2,4-triazol-3-yl)sulfanyl]ethyl]-2-pyridyl]-3-(pentafluoro-λ^6-sulfanyl)benzamide]
IC50 (Cbl-b [1]): ≤ 10 µM
IC50 (Cbl-b [2]; [3]): 3 to 10 µM
Kd (Cbl-b (residues 36-427)): 3 to 10 µM

C[C@H](Sc1nncn1C)c1ccnc(NC(=O)c2cccc(C3CC3)n2)c1 [Compound 117, 6-cyclopropyl-N-[4-[(1S)-1-[(4-methyl-1,2,4-triazol-3-yl)sulfanyl]ethyl]-2-pyridyl]pyridine-2-carboxamide]
IC50 (Cbl-b [1]): ≤ 10 µM
IC50 (Cbl-b [2]; [3]): 1 to 3 µM
Kd (Cbl-b (residues 36-427)): 3 to 10 µM

C[C@H](Sc1nncn1C)c1ccnc(NC(=O)c2nc3ccccc3s2)c1 [Compound 121, N-[4-[(1S)-1-[(4-methyl-1,2,4-triazol-3-yl)sulfanyl]ethyl]-2-pyridyl]-1,3-benzothiazole-2-carboxamide]
IC50 (Cbl-b [1]): ≤ 10 µM
IC50 (Cbl-b [2]; [3]): 3 to 10 µM
Kd (Cbl-b (residues 36-427)): 3 to 10 µM

C[C@H](Sc1nncn1C)c1ccnc(NC(=O)c2cccc(OC(F)(F)F)n2)c1 [Compound 122, (S)-N-(4-(1-((4-methyl-4H-1,2,4-triazol-3-yl)thio)ethyl)pyridin-2-yl)-6-(trifluoromethoxy)picolinamide]
IC50 (Cbl-b [1]): ≤ 10 µM
IC50 (Cbl-b [2]; [3]): 1 to 3 µM
Kd (Cbl-b (residues 36-427)): 1 to 3 µM

CCc1cccc(C(=O)Nc2cc([C@H](C)Sc3nncn3C)ccn2)n1 [Compound 123, (S)-6-ethyl-N-(4-(1-((4-methyl-4H-1,2,4-triazol-3-yl)thio)ethyl)pyridin-2-yl)picolinamide]
IC50 (Cbl-b [1]): ≤ 10 µM
IC50 (Cbl-b [2]; [3]): 1 to 3 µM
Kd (Cbl-b (residues 36-427)): 3 to 10 µM

C[C@H](Sc1nncn1C)c1ccnc(NC(=O)c2cccc(Cl)n2)c1 [Compound 124, 6-chloro-N-[4-[(LV)-1-[(4-methyl-1,2,4-triazol-3-yl)sulfanyl]ethyl]-2-pyridyl]pyridine-2-carboxamide]
IC50 (Cbl-b [1]): ≤ 10 µM
IC50 (Cbl-b [2]; [3]): 1 to 3 µM
Kd (Cbl-b (residues 36-427)): 3 to 10 µM

COc1nc(C(=O)Nc2cc([C@H](C)Sc3nncn3C)ccn2)ccc1Cl [Compound 125, (S)-5-chloro-6-methoxy-N-(4-(1-((4-methyl-4H-1,2,4-triazol-3-yl)thio)ethyl)pyridin-2-yl)picolinamide]
IC50 (Cbl-b [1]): ≤ 10 µM
IC50 (Cbl-b [2]; [3]): 1 to 3 µM
Kd (Cbl-b (residues 36-427)): 3 to 10 µM

C[C@H](Sc1nncn1C)c1ccnc(NC(=O)c2cc(N3CC[C@H](O)C3)cc(C(F)(F)F)n2)c1 [Compound 126, 4-[(3S)-3-hydroxypyrrolidin-1-yl]-N-[4-[(1S)-1-[(4-methyl-1,2,4-triazol-3-yl)sulfanyl]ethyl]-2-pyridyl]-6-(trifluoromethyl)pyridine-2-carboxamide]
IC50 (Cbl-b [1]): ≤ 10 µM
IC50 (Cbl-b [2]; [3]): 1 to 3 µM
Kd (Cbl-b (residues 36-427)): 3 to 10 µM

C=CCC(Sc1nncn1C)c1cccc(NC(=O)c2ccc3ccccc3n2)c1 (centres unmarked) [Compound 134, N-[3-[1-[(4-methyl-1,2,4-triazol-3-yl)sulfanyl]but-3-enyl]phenyl]quinoline-2-carboxamide]
IC50 (Cbl-b [1]): ≤ 10 µM
IC50 (Cbl-b [2]; [4]): 1 to 3 µM
IC50 (Cbl-b [2]; [3]): 1 to 3 µM
Kd (Cbl-b (residues 36-427)): > 10 µM
